Experimental findings from ChEMBL document CHEMBL5634161, “Discovery of benzamide-based PI3K/HDAC dual inhibitors with marked pro-apoptosis activity in lymphoma cells” (Eur J Med Chem, 2023) are described below.

Usually IC50 stands for the concentration that gives 50% inhibition. The low end stands for greater potency in that assay, the high end for weaker potency in that assay. A word on the MRT inf: it is the average time that molecules of a dose stay in the body.

Structures are written as SMILES.

For data set [1], the target named is Protein deacetylase HDAC6 (Homo sapiens, UniProt Q9UBN7). Kind of data set: Inhibition of HDAC6 (unknown origin) using Boc-Lys(acetyl)-AMC as substrate preincubated for 1 hrs followed by substrate addition and measured after 2 hrs by spectrophotometer based fluorometric assay.
A short description of data set [2]: MRT (0 to infinity) in ICR mouse at 1 mg/kg, iv measured after 24 hrs by LC-MS/MS analysis. Type of data set: ADME, organism-based. Conditions: in vivo.

Chain of Protein deacetylase HDAC6 (Q9UBN7 whole entry): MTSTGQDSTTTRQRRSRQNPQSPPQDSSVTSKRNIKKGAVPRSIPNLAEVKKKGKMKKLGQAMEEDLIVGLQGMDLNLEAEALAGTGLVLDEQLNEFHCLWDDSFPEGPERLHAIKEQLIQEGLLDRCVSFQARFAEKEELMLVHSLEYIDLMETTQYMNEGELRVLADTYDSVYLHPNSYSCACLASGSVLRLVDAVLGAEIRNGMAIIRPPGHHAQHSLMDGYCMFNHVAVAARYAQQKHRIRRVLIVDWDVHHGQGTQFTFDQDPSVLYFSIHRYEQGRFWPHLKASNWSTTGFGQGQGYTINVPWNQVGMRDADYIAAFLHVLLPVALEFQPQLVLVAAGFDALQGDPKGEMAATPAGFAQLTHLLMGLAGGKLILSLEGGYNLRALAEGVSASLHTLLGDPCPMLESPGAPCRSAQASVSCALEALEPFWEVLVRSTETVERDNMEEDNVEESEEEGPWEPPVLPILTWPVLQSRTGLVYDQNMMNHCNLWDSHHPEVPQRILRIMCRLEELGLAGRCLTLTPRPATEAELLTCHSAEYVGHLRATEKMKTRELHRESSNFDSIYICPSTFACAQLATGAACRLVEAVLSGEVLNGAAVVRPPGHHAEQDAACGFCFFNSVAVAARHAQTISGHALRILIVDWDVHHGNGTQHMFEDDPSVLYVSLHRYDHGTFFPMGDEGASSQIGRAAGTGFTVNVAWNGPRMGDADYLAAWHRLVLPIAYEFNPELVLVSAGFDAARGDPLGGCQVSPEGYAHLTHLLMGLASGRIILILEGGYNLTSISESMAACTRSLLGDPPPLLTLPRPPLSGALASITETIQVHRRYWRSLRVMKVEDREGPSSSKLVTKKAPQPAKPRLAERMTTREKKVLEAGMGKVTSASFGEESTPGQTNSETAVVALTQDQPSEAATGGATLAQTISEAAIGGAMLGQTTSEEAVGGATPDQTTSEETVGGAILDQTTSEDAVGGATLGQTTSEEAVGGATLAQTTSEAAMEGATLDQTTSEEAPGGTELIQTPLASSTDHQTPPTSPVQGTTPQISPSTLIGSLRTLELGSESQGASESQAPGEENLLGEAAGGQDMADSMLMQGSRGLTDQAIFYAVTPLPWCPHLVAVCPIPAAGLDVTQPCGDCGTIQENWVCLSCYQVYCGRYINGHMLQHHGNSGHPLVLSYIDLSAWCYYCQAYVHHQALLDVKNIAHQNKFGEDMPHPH

Regarding `COc1nc(-c2ccc(NC(=O)Nc3ccc(C(=O)NCCCCCC(=O)Nc4ccccc4N)cc3)cc2)nc(N2CCOCC2)n1`, the IC50 in data set [1] was more than 10 µM. For the same compound, the MRT inf in data set [2] worked out at 2 h.
